In the NIST ThermoML archive (doi:10.1021/je800921n):

Key:
[1] = Crystal; Differential scanning calorimeter
[2] = Molar enthalpy of transition or fusion; settings: Crystal; Differential scanning calorimeter

Normal melting temperature [1]: 102.5 °C
Molar enthalpy of transition or fusion [2]: 8.44 kcal/mol
SMILES: O=C(O)CCCCCCCC(=O)O [1,9-nonanedioic acid]
